Assay results as given in PubChem BioAssay (NCI).
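Each compound was tested at five concentrations against cells in 96-well plates for 48 hours. Abbreviation: GI50, concentration required for 50% inhibition of growth. Definition used: TGI = concentration required for complete inhibition of growth.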

What was measured:
Experiment in all cases: NCI anticancer screen, dose series, 48 h
HS 578T breast = tested on: HS 578T breast
ACHN renal = tested on: ACHN renal
A498 renal = tested on: A498 renal
K-562 leukemia = tested on: K-562 leukemia
UACC-257 melanoma = tested on: UACC-257 melanoma
NCI/ADR-RES ovarian = tested on: NCI/ADR-RES ovarian
UO-31 renal = tested on: UO-31 renal
SK-OV-3 ovarian = tested on: SK-OV-3 ovarian
HL-60(TB) leukemia = tested on: HL-60(TB) leukemia
T-47D breast = tested on: T-47D breast
TK-10 renal = tested on: TK-10 renal
MALME-3M melanoma = tested on: MALME-3M melanoma
M14 melanoma = tested on: M14 melanoma
HCT-15 colon = tested on: HCT-15 colon
SK-MEL-28 melanoma = tested on: SK-MEL-28 melanoma
MDA-MB-231 breast = tested on: MDA-MB-231 breast
HOP-92 NSCLC = tested on: HOP-92 NSCLC
NCI-H226 lung = tested on: NCI-H226 lung
CAKI-1 renal = tested on: CAKI-1 renal
NCI-H460 lung = tested on: NCI-H460 lung
BT-549 breast = tested on: BT-549 breast
RPMI-8226 leukemia = tested on: RPMI-8226 leukemia
MDA-MB-435 = tested on: MDA-MB-435
IGROV1 ovarian = tested on: IGROV1 ovarian
SK-MEL-5 melanoma = tested on: SK-MEL-5 melanoma
SW-620 colon = tested on: SW-620 colon
UACC-62 melanoma = tested on: UACC-62 melanoma
HCC-2998 colon = tested on: HCC-2998 colon
RXF 393 renal = tested on: RXF 393 renal
NCI-H522 lung = tested on: NCI-H522 lung
MCF7 breast = tested on: MCF7 breast
CCRF-CEM leukemia = tested on: CCRF-CEM leukemia
OVCAR-4 ovarian = tested on: OVCAR-4 ovarian
EKVX NSCLC = tested on: EKVX NSCLC
OVCAR-8 ovarian = tested on: OVCAR-8 ovarian
A549 NSCLC = tested on: A549 NSCLC
KM12 colon = tested on: KM12 colon
U251 CNS = tested on: U251 CNS
OVCAR-5 ovarian = tested on: OVCAR-5 ovarian
SF-268 CNS = tested on: SF-268 CNS
HT29 colon = tested on: HT29 colon
SK-MEL-2 melanoma = tested on: SK-MEL-2 melanoma
SNB-75 CNS = tested on: SNB-75 CNS
MOLT-4 leukemia = tested on: MOLT-4 leukemia
PC-3 prostate = tested on: PC-3 prostate
HOP-62 NSCLC = tested on: HOP-62 NSCLC
786-0 renal = tested on: 786-0 renal
DU-145 prostate = tested on: DU-145 prostate
COLO 205 colon = tested on: COLO 205 colon
SF-539 CNS = tested on: SF-539 CNS
SNB-19 CNS = tested on: SNB-19 CNS
SF-295 CNS = tested on: SF-295 CNS
SN12C renal = tested on: SN12C renal
OVCAR-3 ovarian = tested on: OVCAR-3 ovarian
SR leukemia = tested on: SR leukemia

In the case of `NC(N)=Nc1ccc(Nc2cccc(Nc3ccc(Cl)c(C(F)(F)F)c3)c2)cn1`, the GI50 (HS 578T breast) is reported as 2.04 µM, the TGI (HS 578T breast) is reported as 4.94 µM and the GI50 (ACHN renal) is reported as 3.58 µM. The TGI (ACHN renal) was 17.5 µM, the GI50 (A498 renal) was 1.69 µM and the TGI (A498 renal) was 4.72 µM. For the same compound, the GI50 (K-562 leukemia) was 2.54 µM, the TGI (K-562 leukemia) was over 100 µM and the GI50 (UACC-257 melanoma) was 2.39 µM. For the same compound, the TGI (UACC-257 melanoma) was 6.53 µM, the GI50 (NCI/ADR-RES ovarian) was 21.6 µM and the TGI (NCI/ADR-RES ovarian) was 93.4 µM. It also gave a GI50 (UO-31 renal) of 4.33 µM, a TGI (UO-31 renal) of 38.3 µM and a GI50 (SK-OV-3 ovarian) of 2.81 µM. The TGI (SK-OV-3 ovarian) was 6.91 µM, the GI50 (HL-60(TB) leukemia) was 2.31 µM and the TGI (HL-60(TB) leukemia) was 5.74 µM. The GI50 (T-47D breast) was 1.85 µM, the TGI (T-47D breast) was 4.87 µM and the GI50 (TK-10 renal) was 2.77 µM. The TGI (TK-10 renal) was 7.58 µM, the GI50 (MALME-3M melanoma) was 2.01 µM and the TGI (MALME-3M melanoma) was 5.36 µM.
`CCNC(=O)Oc1ccc(/C(=C(/C)c2ccccc2)c2ccc(OCCN3CCCCCC3)cc2)cc1` gave a GI50 (M14 melanoma) of 1.8 µM, a TGI (M14 melanoma) of 3.62 µM and a GI50 (HCT-15 colon) of 1.53 µM. The TGI (HCT-15 colon) was 3.33 µM, the GI50 (SK-MEL-28 melanoma) was 1.8 µM and the TGI (SK-MEL-28 melanoma) was 3.62 µM. For the same compound, the GI50 (MDA-MB-231 breast) was 2.25 µM, the TGI (MDA-MB-231 breast) was 4.84 µM and the GI50 (HOP-92 NSCLC) was 1.23 µM. For the same compound, the TGI (HOP-92 NSCLC) was 4.62 µM, the GI50 (NCI-H226 lung) was 2.97 µM and the TGI (NCI-H226 lung) was 10.8 µM. The GI50 (CAKI-1 renal) was 1.94 µM, the TGI (CAKI-1 renal) was 4.28 µM and the GI50 (HS 578T breast) was 1.91 µM. It also gave a TGI (HS 578T breast) of 4.67 µM, a GI50 (NCI-H460 lung) of 1.99 µM and a TGI (NCI-H460 lung) of 4.14 µM. The GI50 (BT-549 breast) was 1.71 µM, the TGI (BT-549 breast) was 3.38 µM and the GI50 (RPMI-8226 leukemia) was 1.95 µM. For the same compound, the TGI (RPMI-8226 leukemia) was 4.65 µM, the GI50 (MDA-MB-435) was 1.7 µM and the TGI (MDA-MB-435) was 3.29 µM. It also gave a GI50 (IGROV1 ovarian) of 3.64 µM, a TGI (IGROV1 ovarian) of 14.8 µM and a GI50 (SK-MEL-5 melanoma) of 1.74 µM. The TGI (SK-MEL-5 melanoma) was 3.16 µM, the GI50 (SW-620 colon) was 2.11 µM and the TGI (SW-620 colon) was 5.15 µM. It also gave a GI50 (UACC-62 melanoma) of 1.91 µM, a TGI (UACC-62 melanoma) of 3.87 µM and a GI50 (HCC-2998 colon) of 2 µM. It also gave a TGI (HCC-2998 colon) of 3.89 µM, a GI50 (RXF 393 renal) of 1.65 µM and a TGI (RXF 393 renal) of 3.27 µM. It also gave a GI50 (ACHN renal) of 3.37 µM, a TGI (ACHN renal) of 10.6 µM and a GI50 (NCI-H522 lung) of 1.8 µM. The TGI (NCI-H522 lung) was 3.75 µM, the TGI (MCF7 breast) was 2.6 µM and the GI50 (A498 renal) was 10.4 µM. It also gave a TGI (A498 renal) of 24.7 µM, a GI50 (CCRF-CEM leukemia) of 2.92 µM and a TGI (CCRF-CEM leukemia) of 28.7 µM. The GI50 (OVCAR-4 ovarian) was 3.05 µM, the TGI (OVCAR-4 ovarian) was 11.8 µM and the GI50 (EKVX NSCLC) was 3.24 µM. For the same compound, the TGI (EKVX NSCLC) was 12.2 µM, the GI50 (OVCAR-8 ovarian) was 3.07 µM and the TGI (OVCAR-8 ovarian) was 10.7 µM. The GI50 (A549 NSCLC) was 3.26 µM, the TGI (A549 NSCLC) was 13.1 µM and the GI50 (KM12 colon) was 3 µM. The TGI (KM12 colon) was 11.1 µM, the GI50 (K-562 leukemia) was 1.82 µM and the TGI (K-562 leukemia) was over 100 µM. The GI50 (U251 CNS) was 1.58 µM, the TGI (U251 CNS) was 3.2 µM and the GI50 (UACC-257 melanoma) was 1.88 µM. The TGI (UACC-257 melanoma) was 3.87 µM, the GI50 (OVCAR-5 ovarian) was 4.35 µM and the TGI (OVCAR-5 ovarian) was 17.8 µM. The GI50 (SF-268 CNS) was 4 µM, the TGI (SF-268 CNS) was 18.6 µM and the GI50 (NCI/ADR-RES ovarian) was 2.22 µM. It also gave a TGI (NCI/ADR-RES ovarian) of 6.4 µM, a GI50 (UO-31 renal) of 1.52 µM and a TGI (UO-31 renal) of 4.43 µM. It also gave a GI50 (HT29 colon) of 1.27 µM, a TGI (HT29 colon) of 3.27 µM and a GI50 (SK-OV-3 ovarian) of 2.74 µM. It also gave a TGI (SK-OV-3 ovarian) of 8.06 µM, a GI50 (SK-MEL-2 melanoma) of 2.48 µM and a TGI (SK-MEL-2 melanoma) of 6.76 µM. The GI50 (SNB-75 CNS) was 1.85 µM, the TGI (SNB-75 CNS) was 4.36 µM and the GI50 (MOLT-4 leukemia) was 2.4 µM. The TGI (MOLT-4 leukemia) was 12.3 µM, the GI50 (PC-3 prostate) was 1.74 µM and the TGI (PC-3 prostate) was 4.19 µM. The GI50 (HOP-62 NSCLC) was 2.05 µM, the TGI (HOP-62 NSCLC) was 4.82 µM and the GI50 (786-0 renal) was 1.71 µM. The TGI (786-0 renal) was 3.46 µM, the GI50 (HL-60(TB) leukemia) was 1.8 µM and the TGI (HL-60(TB) leukemia) was 6.15 µM. The GI50 (T-47D breast) was 1.15 µM, the TGI (T-47D breast) was 6.04 µM and the GI50 (TK-10 renal) was 5.83 µM. For the same compound, the TGI (TK-10 renal) was 19.9 µM, the GI50 (DU-145 prostate) was 4.92 µM and the TGI (DU-145 prostate) was 20.3 µM. It also gave a GI50 (COLO 205 colon) of 1.56 µM, a TGI (COLO 205 colon) of 2.98 µM and a GI50 (SF-539 CNS) of 1.74 µM. For the same compound, the TGI (SF-539 CNS) was 3.21 µM, the GI50 (MALME-3M melanoma) was 1.8 µM and the TGI (MALME-3M melanoma) was 3.47 µM. For the same compound, the GI50 (SNB-19 CNS) was 3.82 µM, the TGI (SNB-19 CNS) was 13.4 µM and the GI50 (SF-295 CNS) was 1.98 µM. It also gave a TGI (SF-295 CNS) of 3.94 µM, a GI50 (SN12C renal) of 2.56 µM and a TGI (SN12C renal) of 8.36 µM. It also gave a GI50 (OVCAR-3 ovarian) of 2.87 µM, a TGI (OVCAR-3 ovarian) of 8.2 µM and a GI50 (SR leukemia) of 2.04 µM. The TGI (SR leukemia) was 6.59 µM.
